Results reported in patent US20150313801A1, “DETECTION OF CARIOUS DENTIN TISSUE AND REMOVAL THEREOF BY MEANS OF A DENTAL INSTRUMENT” (RLS GLOBAL AB, priority 2012, published 2015).
“Also recorded” adds a separate entry of the source.

Legend:
[1] = tested on: carious dentin tissue in infected teeth; assay: Staining of caries-infected tooth slices, retention after NaCl and NaOH incubation (Example 2); conditions: for colouring of tooth slice after NaCl and NaOH treatment (Day 4): after 1 M NaCl and 0.5 M NaOH overnight incubations, visible light, UV or fluorescence microscopy; for mode of binding to carious tissue in infected teeth (conclusion): conclusion of Example 2
Protocol: Experiments were performed during 4 days. Whole caries infected tooth was added to an ortho acryl gel, which after hardening was used as a holder prior to […] of brand Zaw Micro Tone, German). Slices, having a thickness of 150 μm, were left over night in each colour to be tested (Day one). On the second day, the colours were washed out by rinsing the slices with MQ water and the teeth sections were photographed under either a microscope (6.7×; visible light), in UV (no microscope) or under a fluorescence microscope (100×). Thereafter, an aqueous salt solution (NaCl, 1 M) was added to the slices and incubated overnight. On the third day the slices were washed with MQ water and thereafter the same detection procedures were used as described above. Finally the tooth slices were exposed to an aqueous solution of NaOH (0.5 M) over night. The washing and detection path were then repeated as described previously (Day 4).

carious dentin tissue [2] = assay: Staining of carious dentin of a pre molar tooth combined with high-speed dental drill (Example 6); conditions: 15-50 mM aqueous solution; Diamond/Fissure bur OB 301A FG; repeated several times
Protocol: Carious dentin tissue of a pre molar tooth stained with an aqueous solution of the hydrazine derivative Alexa 594 in a concentration of 15-50 mM was subjected to mechanical treatment by a dental drill until no staining could be visually detected. The dental drill was a high-speed dental drill Diamond/Fissure bur OB 301A FG from Plandent Forssbergs Dental, Sweden. […] The stained surface was subjected to drilling until no staining could be visually detected. A dentist examined the surface visually and with a tactile instrument and concluded that the surface was free of caries. […] Again, drilling of the stained surface took place until no staining could be observed. […] Drilling and staining as described above in this example was repeated several times. […] This is in contrast to the successful selective detection and removal of carious dentin tissue using a hydrazine derivative in combination with a chemical means for treatment of carious dentin tissue as described in Example 5.

carious dentin tissue [3] = assay: Staining of carious dentin of a pre molar tooth combined with Carisolv excavation (Example 5)
Protocol: Carious dentin tissue of a pre molar tooth was treated with Carisolv® to obtain a cavity and subsequently stained with an aqueous solution of the hydrazine derivative Alexa 594. The concentration of the aqueous solution of the hydrazine derivative Alexa 594 was 15-50 mM. […] Carisolv® was added to the cavity and excavation took place with a hand instrument from Mediteam Dental AB to reach a carious free level. […] A dentist performed tactile control of this surface and confirmed that the surface was free of caries.
The slightly stained surface was subjected to treatment with Carisolv® followed by excavation with a hand instrument. […] It was therefore concluded that all carious dentin tissue of the tooth had been removed. It was concluded that a hydrazine derivative such as Alexa 594 can be used in combination with a chemical means for carious dentin tissue such as Carisolv® for selective detection and removal of carious dentin tissue.

[4] = tested on: smear layer on healthy dentin tissue; assay: Staining of drilled dentin of an extracted healthy tooth, smear layer detection (Examples 7 and 8)
Protocol: An extracted tooth in a healthy state with no previous dental restoration was subjected to drilling with the dental drill Cera Bur at a speed of approximately 1500 rpm. The dental drill Cera Bur was from the company Comet USA LLC and is described in EP 1 849 429. […] Therefore, the tooth was subjected to a high-speed dental drill resulting in a cavity exposing dentin tissue, i.e. a dentin tooth surface. The high speed dental drill was the high-speed dental drill Diamond/Fissure bur OB 301A FG from Plandent Forssbergs Dental, Sweden. […] The staining was visually detected using the instrument PoliLed SN06LP1121 operated at 460-470 nm, Faro.
The thus formed smear layer stained with Lucifer Yellow was subjected to drilling with the dental drill Cera Bur at a speed of approximately 1500 rpm after which rinsing with water took place. […] It was concluded that the Cera Bur drill removed the smear layer and the resulting dentin tissue was free of smear layer.
It was concluded that the dentin tooth surface was free of smear layer. […]
An extracted tooth in a healthy state with no previous dental restoration was subjected to a high-speed dental drill resulting in a cavity exposing dentin tissue, i.e. a dentin tooth surface. […] The staining was visually detected using the instrument PoliLed SN06LP1121 operated at 460-470 nm, Faro. […]

healthy dentin tissue [5] = assay: TOF-SIMS of healthy dentin tissue treated with hydrazine derivative (Example 4); conditions: TOF-SIMS positive spectra
carious dentin tissue [6] = assay: FTIR of carious dentin tissue treated with hydrazine derivative (Example 3); design: species or system human
Source text: (§1) Extracted permanent human teeth with no previous dental restorations were selected due to their severe carious tissue status and analysed with FTIR within one week after extraction. The outermost part of the carious dental lesions was removed. The remaining dental carious tissue was divided into two layers; one outer layer with discoloured, soft and infected dental carious tissue and one inner layer that was excavated down to the observed uncoloured hard surface of the remaining healthy dentin controlled by tactile procedures.
(§2) Healthy dentin tissue and carious dentin tissue from the innermost layer were collected. This healthy dentin tissue sample and carious dentin tissue sample were then each divided into three samples.
The healthy dentin tissue sample (26 mg) was divided and treated as follows. […] Fluorescence of bounded hydrazine derivate Lucifer Yellow was checked by a UV lamp. […] The third sample, hereinafter denominated sample S3, (7 mg) and the last procedure was treated with NaBH4 (0.5 M in ethanol) and washed with concentrated ethanol to reduce aldehydes and ketones before the addition of an aqueous solution of the hydrazine derivate Lucifer Yellow (13 mM), repeated rinsing with purified water before dried and analysed. […]
(§3) Thus, in total 6 samples (three from the healthy dentin tissue and three from the carious dentin tissue) were analysed with FTIR within one week after extraction. […]

carious dentin tissue [7] = assay: TOF-SIMS of carious dentin tissue treated with hydrazine derivative (Example 4)
Protocol: FTIR-ATR and TOF-SIMS analyses were performed on a sample group consisting of carious tissue inner most layers selected and estimated with an exactness of a working dentist. Samples were pooled from 4-6 teeth of inner layer of carious tissue (37 mg). The pooled sample was divided into two subgroups where one was exposed to the hydrazine derivate Lucifer Yellow and further analysed with TOF-SIMS and the other only analysed with FTIR-ATR. An aqueous solution of the hydrazine derivate Lucifer Yellow (1.8 mM) was added to the inner layer carious tissue (19 mg) and after 1 hour exposure washed with an aqueous solution of NaOH (0.5 M) and purified water before dried over vacuum. […] Each sample was attached to double side tape and analysed with a TOF-SIMS instrument (TOF-SIMS IV, CAMECA/IONTOF, GmbH, Germany). Positive secondary ion mass spectra were recorded from different areas of the sample at a size of 200×200 μm^2 and separated in a mass analyser and next compared with known mass spectra from the Ion Spec application (IonTof, GmbH, Germany, ver. 4.1) linked with the TOF-SIMS instrument. Negative secondary ion mass spectra were also recorded but gave no further information. […]
The upper spectrum was recorded for the sample of carious dentin tissue that had been milled but not subjected to treatment with hydrazine (i.e. the carious dentin tissue reference). […]

healthy dentin tissue [8] = assay: FTIR of healthy dentin tissue treated with hydrazine derivative (Example 3); design: species or system human; conditions: 13 mM aqueous solution overnight, FIGS. 3a and 3c
Source text: as §1, §2
The healthy dentin tissue sample (26 mg) was divided and treated as follows. […] Fluorescence of bounded hydrazine derivate Lucifer Yellow was checked by a UV lamp. […] The third sample, hereinafter denominated sample S3, (7 mg) and the last procedure was treated with NaBH4 (0.5 M in ethanol) and washed with concentrated ethanol to reduce aldehydes and ketones before the addition of an aqueous solution of the hydrazine derivate Lucifer Yellow (13 mM), repeated rinsing with purified water before dried and analysed.
as §3

## Cc1c(CC(=O)NN)c(=O)oc2cc(N)c(S(=O)(=O)O)cc12 [Alexa 350]
[1]
  colouring of tooth slice after NaCl and NaOH treatment (Day 4): still contained colourants
  mode of binding to carious tissue in infected teeth (conclusion): bind irreversibly

## 6-(2-carboxy-5-(hydrazinecarbonyl)phenyl)-1,2,2,10,10,11-hexamethyl-2,10-dihydro-1H-pyrano[3,2-g]diquinoline-11-ium-4,8-diyl)methanesulfonate [Alexa Fluor® 594]
Carious dentin tissue [2]
  staining after drilling with high-speed dental drill: staining always took place
[1]
  colouring of tooth slice after NaCl and NaOH treatment (Day 4): still contained colourants
  mode of binding to carious tissue in infected teeth (conclusion): bind irreversibly
[1]; listed as Alexa Fluor 594 ®
  colouring of tooth slice after NaCl and NaOH treatment (Day 4): staining
Carious dentin tissue [3]
  detection of carious dentin tissue compared with tactile control by a dentist: better and more sensitive
Carious dentin tissue [3]; 15-50 mM aqueous solution, cavity obtained with Carisolv
  staining of carious cavity: intense dark bluish colour
Carious dentin tissue [3]; after Carisolv and hand-instrument excavation
  staining of surface judged caries free by tactile control: very slight staining
Carious dentin tissue [3]; final staining attempt
  staining after second Carisolv treatment and excavation: no staining took place

## NNC(=O)NN1C(=O)c2cc(S(=O)(=O)O)cc3c(N)c(S(=O)(=O)O)cc(c23)C1=O [Lucifer Yellow]
[4]; aqueous solution 15-50 mM, 1500 rpm, rinsing with water
  staining after drilling the smear layer with round type steel dental drill: resulted in staining
[4]; smear layer formed by high-speed dental drill on healthy tooth
  staining of smear layer (conclusion): stained this smear layer
Healthy dentin tissue [5]
  reaction with healthy dentin: did not react with healthy dentin
Carious dentin tissue [6]; FTIR conclusion
  selectivity carious versus healthy dentin tissue: selectively reacts with carious dentin tissue
Carious dentin tissue [6]; FTIR, peak at 1740 cm-1 no longer present, FIG. 3d
  reaction with carious dentin tissue: reaction has taken place
Carious dentin tissue [7]; TOF-SIMS conclusion
  selectivity carious versus healthy dentin tissue: selectively reacts with carious dentin tissue
Carious dentin tissue [7]; TOF-SIMS positive spectra, 1.8 mM, 1 hour exposure, NaOH wash
  bonding to carious dentin tissue: covalently bonded
Healthy dentin tissue [8]
  reaction with healthy dentin tissue: no reaction takes place
[1]
  colouring of tooth slice after NaCl and NaOH treatment (Day 4): still contained colourants
  mode of binding to carious tissue in infected teeth (conclusion): bind irreversibly
[1]; listed as Lucifer Yellow sodium salt
  colouring of tooth slice after NaCl and NaOH treatment (Day 4): staining

## NNC(=O)CSCC(=O)Nc1ccc(-c2c3ccc(=O)cc-3oc3cc(O)ccc23)c(C(=O)O)c1 [5-(2-2-hydrazinyl-2-oxoethylthio)acetamido)-2-(3-hydroxy-6-oxo-6H-xanthen-9-yl)benzoic acid]
[1]
  colouring of tooth slice after NaCl and NaOH treatment (Day 4): still contained colourants; also recorded: staining
  mode of binding to carious tissue in infected teeth (conclusion): bind irreversibly

## CC(=O)Nc1cc(S(=O)(=O)[O-])cc2cc(S(=O)(=O)[O-])c(/N=N/c3ccccc3)c(O)c12.[Na+].[Na+] [Acid red 1]
[1]; 150 μm slices left overnight in colour, MQ rinse, 1 M NaCl overnight
  staining of tooth slice after incubation with 1 M NaCl: only little staining remained
[1]
  colouring of tooth slice after NaCl and NaOH treatment (Day 4): no colouring
  mode of binding to carious tissue in infected teeth (conclusion): binds in a reversible way
[1]; rinsing, general statement of the description
  effect of rinsing on dye-labelled carious dentin tissue: release of the dye bonded to the carious dentin tissue
